From patent publication US20150265670A1, “AGENT FOR PREVENTING OR IMPROVING DECLINE IN BRAIN FUNCTION” (KYOWA HAKKO BIO CO., LTD., priority 2012, published 2015)

Key:
[1] = test system: bilateral common carotid arteries occlusion C57BL/6J mice; assay: Novel object recognition test; type: in vivo; conditions: single agent, after 7 days administration; for frequency of exploring the novel object, memory behavior: high dose 100 mg/kg oral; for frequency of exploring the novel object: low dose 40 mg/kg oral
Description: (§1) Experimental Example: 10-week-old male C57BL/6J mice (CLEA Japan, Inc. approximately 25 g of average body weight per mouse) were preliminarily acclimated for 1 week, and provided for experiments. Citrulline and glutathione were obtained from KYOWA HAKKO BIO CO., LTD.
(§2) C57BL/6J mice were divided into a sham-operation group (Group 1) and a bilateral common carotid arteries occlusion group, which was performed under halothane anesthesia for 20 minutes. One day after reperfusion, the bilateral common carotid arteries occlusion group was further divided into a distilled water-treated group (Group 2), a low-dose citrulline-treated group (40 mg/kg: Group 3), a low-dose glutathione-treated group (40 mg/kg: Group 4), a high-dose citrulline-treated group (100 mg/kg: Group 5), a high-dose glutathione-treated group (100 mg/kg: Group 6), and a combination treatment group of a low dose of citrulline and a low dose of glutathione (each 40 mg/kg: Group 7). Each sample was orally administered for 12 days. One week after starting administration, learning memory-improving effects were examined by a Y-maze test, a passive avoidance test, and a novel object recognition test. After evaluating learning memory functions, the hippocampus was removed and viability of hippocampal nerve cells was evaluated.
The novel object recognition test was performed after mice were individually acclimated to the open field apparatus (35×25×35 cm) for 2 days. During training, mice were allowed to explore freely for 10 minutes in an apparatus where two identical objects were symmetrically placed. After 1 hour, one object was replaced by a novel object, and mice were allowed to explore freely for 5 minutes. Object exploration was defined as standing on the objects, touching the object with the nose, or sniffing the object within 1 cm from the object. A ratio of the frequency of exploring the familiar or novel object over the total exploration frequency was calculated, and used as an index for visual recognition memory.

[2] = test system: hippocampal nerve cells (CA1 pyramidal cell layer); assay: Evaluation of viability of hippocampal nerve cells; type: in vivo, mice; conditions: single agent, 12 days administration
Description: as §1, §2
Twelve days after bilateral occlusion of the common carotid arteries, mice were anesthetized with pentobarbital sodium, and perfused with ice-cold phosphate buffer (PBS, pH 7.4) until the blood in the body was completely removed. Immediately, mice were perfused with a fixative solution containing 4% paraformaldehyde. The brain tissues were fixed at 4° C. for 24 hours, and coronal sections having a thickness of 50 μm were prepared. Serial sections containing the hippocampus were stained with propidium iodide (PI, 5 μmol/L) dissolved in PBS and observed under a fluorescent microscope. Surviving and non-surviving nerve cells in the CA1 pyramidal cell layer of the hippocampus were counted at 1.4 to 1.8 mm posterior to bregma, and cells with PI-positive nuclei and typical morphological characteristics were defined as […]. The cell viability was calculated from a ratio to the average number of surviving nerve cells in Group 1.

[3] = test system: bilateral common carotid arteries occlusion C57BL/6J mice; assay: Passive avoidance test; type: in vivo; conditions: single agent, after 7 days administration; for latency time spent in the light compartment, memory behavior: high dose 100 mg/kg oral; for latency time spent in the light compartment: low dose 40 mg/kg oral, compared to Group 2
Description: as §1, §2
The passive avoidance test was performed using a box consisting of dark (25×25×25 cm) and light compartments (14×10×25 cm) and being equipped with an electrical stimulation apparatus at the bottom of the dark compartment. During training, as soon as the mouse entered the dark compartment from the light compartment, the door was closed, and an electrical stimulation (0.3 mA, for 2 seconds) was delivered. Twenty four hours after training, the mouse was placed again in the light compartment, and the latency time spent in the light compartment was recorded with a maximum latency of 300 seconds.

[4] = test system: bilateral common carotid arteries occlusion C57BL/6J mice; assay: Y-maze test; type: in vivo; conditions: single agent, after 7 days administration; for spontaneous alternation behavior rate (Alternation), memory behavior: high dose 100 mg/kg oral; for spontaneous alternation behavior rate (Alternation): low dose 40 mg/kg oral, compared to distilled water group (Group 2)
Description: as §1, §2
In the Y-maze test, a Y-maze apparatus with three arms (50×16×32 cm) was used. Mice were placed at any one arm of the Y-maze and were allowed to explore freely through the maze for 8 minutes. The sequence of arm entries was recorded. The number of entries into each arm was counted during the measurement time, which was defined as the total number of entries. Of them, the successive entry into the three different arms was examined, and this number was defined as the spontaneous alternation behavior number. The spontaneous alternation behavior number was divided by (the total number of arm entries minus two), and then multiplied by 100, which was defined as the spontaneous alternation behavior rate (Alternation) and used as an index for spontaneous alternation behavior.

[5] = low dose 40 mg/kg oral, compared to Group 2

| SMILES | frequency of exploring the novel object, memory behavior [1] | frequency of exploring the novel object [1] | viability of hippocampal nerve cells ([2]; high dose 100 mg/kg oral) | viability of hippocampal nerve cells [2, 5] | latency time spent in the light compartment, memory behavior [3] | latency time spent in the light compartment [3] | spontaneous alternation behavior rate (Alternation), memory behavior [4] | spontaneous alternation behavior rate (Alternation) [4] |
| --- | --- | --- | --- | --- | --- | --- | --- | --- |
| N[C@@H](CCC(=O)N[C@@H](CS)C(=O)NCC(=O)O)C(=O)O [glutathione] | remarkably improved effect of memory behavior | cannot be increased | nerve cell-protecting effect | cannot be improved | remarkably improved effect of memory behavior | cannot be improved | remarkably improved effect of memory behavior | cannot be improved |
| NC(=O)NCCC[C@H](N)C(=O)O [citrulline] | remarkably improved effect of memory behavior | cannot be increased | nerve cell-protecting effect | cannot be improved | remarkably improved effect of memory behavior | cannot be improved | remarkably improved effect of memory behavior | cannot be improved |
